Assay [1] addresses T1, P2Y purinoceptor 4 (Homo sapiens, UniProt P51582). The assay can be described thus: Agonist activity at human recombinant P2Y4 receptor expressed in human 1321N1 cells assessed as [3H]inositol phosphate intracellular accumulation by scintillation proximity assay. It is filed as functional, cell-based. On the technique in general: Scintillation proximity formats need no separation of bound from free tracer.

The target in assay [2] is T2, P2Y purinoceptor 6 (Homo sapiens, UniProt Q15077). The experiment in a line: Agonist activity at human recombinant P2Y6 receptor expressed in human 1321N1 cells assessed as [3H]inositol phosphate intracellular accumulation by scintillation proximity assay. The format is functional, cell-based.
Assay [3] deals with T3, P2Y purinoceptor 2 (Homo sapiens, UniProt P41231). The experiment in a line: Agonist activity at human recombinant P2Y2 receptor expressed in human 1321N1 cells assessed as [3H]inositol phosphate intracellular accumulation by scintillation proximity assay. The format is functional, cell-based.
The target in assay [4] is T1, P2Y purinoceptor 4. The assay can be described thus: Agonist activity at P2Y4 receptor. It is filed as functional.
The target of assay [5] is T2, P2Y purinoceptor 6. The assay can be described thus: Agonist activity at P2Y6 receptor. The format is functional.
The species entered for assay [6] is Homo sapiens. The assay can be described thus: Selectivity ratio of EC50 for human P2Y4 receptor to EC50 for human P2Y2 receptor.
For assay [7], the species on record is Homo sapiens. The assay can be described thus: Selectivity ratio of EC50 for human P2Y6 receptor to EC50 for human P2Y2 receptor.
Assay [8] is filed under the species Homo sapiens. The experiment in a line: Selectivity ratio of EC50 for human P2Y2 receptor to EC50 for human P2Y4 receptor.
The species named for assay [9] is Homo sapiens. The assay can be described thus: Selectivity ratio of EC50 for human P2Y6 receptor to EC50 for human P2Y4 receptor.
Assay [10] is filed under the species Homo sapiens. The assay can be described thus: Selectivity ratio of EC50 for human P2Y2 receptor to EC50 for human P2Y6 receptor.
For assay [11], the species on record is Homo sapiens. The assay can be described thus: Selectivity ratio of EC50 for human P2Y4 receptor to EC50 for human P2Y6 receptor.
Assay [12] addresses T3, P2Y purinoceptor 2. The assay can be described thus: Ratio of compound EC50 to UDP EC50 for human recombinant P2Y2 receptor.
In assay [13] the target is T3, P2Y purinoceptor 2. The experiment in a line: Agonist activity at P2Y2 receptor. It is filed as functional.

Bounds are passed on as bounds.

Results on 29 compounds are retold here after ChEMBL document CHEMBL1765086, “Structural modifications of UMP, UDP, and UTP leading to subtype-selective agonists for P2Y2, P2Y4, and P2Y6 receptors” (J Med Chem, 2011).

T3 sequence (P41231 whole entry): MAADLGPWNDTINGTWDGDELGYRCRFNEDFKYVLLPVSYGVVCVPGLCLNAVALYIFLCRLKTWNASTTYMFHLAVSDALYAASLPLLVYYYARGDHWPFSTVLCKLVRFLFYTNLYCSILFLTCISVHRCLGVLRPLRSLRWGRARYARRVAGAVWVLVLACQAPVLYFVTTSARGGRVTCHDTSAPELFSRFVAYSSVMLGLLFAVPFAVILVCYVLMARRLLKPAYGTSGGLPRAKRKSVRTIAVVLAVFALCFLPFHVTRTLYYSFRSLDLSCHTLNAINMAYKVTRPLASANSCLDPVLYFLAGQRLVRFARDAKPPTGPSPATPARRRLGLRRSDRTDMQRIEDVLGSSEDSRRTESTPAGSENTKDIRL
T2 sequence (Q15077 whole entry): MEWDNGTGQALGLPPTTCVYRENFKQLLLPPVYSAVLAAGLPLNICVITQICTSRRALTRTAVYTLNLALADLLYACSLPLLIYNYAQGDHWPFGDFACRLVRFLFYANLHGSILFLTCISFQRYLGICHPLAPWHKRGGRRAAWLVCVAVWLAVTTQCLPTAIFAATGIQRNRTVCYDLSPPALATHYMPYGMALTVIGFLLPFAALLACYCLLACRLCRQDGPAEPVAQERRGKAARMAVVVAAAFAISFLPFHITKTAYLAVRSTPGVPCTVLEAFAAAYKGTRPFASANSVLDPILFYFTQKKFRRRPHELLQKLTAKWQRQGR
T1 sequence (P51582 whole entry): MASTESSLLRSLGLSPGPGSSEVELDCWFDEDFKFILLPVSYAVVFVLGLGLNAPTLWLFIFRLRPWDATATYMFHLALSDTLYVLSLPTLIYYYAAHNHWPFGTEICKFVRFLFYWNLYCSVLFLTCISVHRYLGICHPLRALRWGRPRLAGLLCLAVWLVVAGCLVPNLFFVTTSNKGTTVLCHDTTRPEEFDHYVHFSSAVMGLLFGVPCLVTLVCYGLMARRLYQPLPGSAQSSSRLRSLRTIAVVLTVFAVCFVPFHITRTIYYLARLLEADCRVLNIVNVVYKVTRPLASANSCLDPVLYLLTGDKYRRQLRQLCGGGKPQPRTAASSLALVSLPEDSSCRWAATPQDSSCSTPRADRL

For the compound `O=c1[nH]c(=O)n([C@@H]2O[C@H](COP(=O)(O)OP(=O)(O)OP(=O)(O)Nc3ccccc3)[C@@H](O)[C@H]2O)cc1Br`, the concentration for a half-maximal effect (EC50) (commonly the midpoint of the concentration-response curve) was greater than 100 µM in [1], 6.1 µM in assay [2] and 1.8 µM in assay [3].

For `CCCSc1nc(=O)ccn1[C@@H]1O[C@H](COP(=O)(O)O)[C@@H](O)[C@H]1O`, the EC50 in assay [1] was greater than 100 µM; in [2] it was 6.2 µM; in assay [3], 4.8 µM.

For `CCCSc1nc(=O)ccn1[C@@H]1O[C@H](COP(=O)(O)OP(=O)(O)O)[C@@H](O)[C@H]1O`, the results for the 50% effective concentration (EC50) in assay [1], in [2] and in assay [3] were 4.9 µM, no less than 100 µM and 1.2 µM, respectively.

For `COc1nc(=O)ccn1[C@@H]1O[C@H](COP(=O)(O)O)[C@@H](O)[C@H]1O`, the values for the EC50 in [1], in assay [2] and in [3] were greater than 100 µM, 9.8 µM and 9.9 µM, respectively.

On to `O=c1[nH]c(=S)ccn1[C@@H]1O[C@H](COP(=O)(O)O)[C@@H](O)[C@H]1O`, for which the EC50 in assay [1], in assay [2] and in [3] was greater than 100 µM in each case.

For `O=c1ccn([C@@H]2O[C@H](COP(=O)(O)OP(=O)(O)OP(=O)(O)OP(=O)(O)OC[C@H]3O[C@@H](n4ccc(=O)[nH]c4=O)[C@H](O)[C@@H]3O)[C@@H](O)[C@H]2O)c(=O)[nH]1` [DIQUAFOSOL TETRASODIUM], the EC50 stood at 0.4 µM in [4] and 2 µM in [5].

For `CSc1nc(=O)ccn1[C@@H]1O[C@H](COP(=O)(O)O)[C@@H](O)[C@H]1O`, the EC50 is greater than 100 µM in assay [1], greater than 100 µM in [2] and 2.9 µM in assay [3].

For `O=c1ccn([C@@H]2O[C@H](COP(=O)(O)OP(=O)(O)O)[C@@H](O)[C@H]2O)c(SCc2ccccc2)n1`, the EC50 amounted to 5.98 µM in [1], 6.8 µM in [2] and 6.2 µM in assay [3].

Consider `O=C(Cn1c(=O)ccn([C@@H]2O[C@H](COP(=O)(O)OP(=O)(O)C(F)(F)P(=O)(O)O)[C@@H](O)[C@H]2O)c1=O)c1ccccc1`, for which the figures for the EC50 in [1], in assay [2] and in [3] were 3.93 µM, 1.46 µM and 1.2 µM, respectively.

`CCSc1nc(=O)ccn1[C@@H]1O[C@H](COP(=O)(O)O)[C@@H](O)[C@H]1O`: the EC50 in assay [1] is 4.33 µM; in [2], greater than 100 µM; in [3], 1.5 µM.

Regarding `COc1nc(=O)ccn1[C@@H]1O[C@H](COP(=O)(O)OP(=O)(O)O)[C@@H](O)[C@H]1O`, the EC50 was 4.49 µM in assay [1], 1.37 µM in [2] and 0.907 µM in [3].

Consider `Nc1nc(=O)ccn1[C@@H]1O[C@H](COP(=O)(O)O)[C@@H](O)[C@H]1O`, for which the EC50 in assay [2] and in [3] was greater than 100 µM each time. The Ratio EC50 in assay [6] is greater than 100; in [7] it was greater than 100; in assay [8] it was greater than 20; in assay [9], greater than 20.

With `Nc1nc(=O)ccn1[C@@H]1O[C@H](COP(=O)(O)OP(=O)(O)O)[C@@H](O)[C@H]1O`, the EC50 is no less than 100 µM in assay [1], no less than 100 µM in assay [2] and 0.604 µM in assay [3]. Also, the Ratio EC50 in assay [6] and in assay [7] was greater than 100 each time.

As to `O=c1ccn([C@@H]2O[C@H](COP(=O)(O)OP(=O)(O)O)[C@@H](O)[C@H]2O)c(SCCc2ccccc2)n1`, the 50% effective concentration (EC50) in [1] was no less than 100 µM; in [2], 2.5 µM; in assay [3], 0.544 µM.

On to `O=c1ccn([C@@H]2O[C@H](COP(=O)(O)O)[C@@H](O)[C@H]2O)c(SCCc2ccccc2)n1`, for which the EC50 in assay [1] was greater than 100 µM; in assay [2] it was greater than 100 µM; in assay [3], 1.3 µM. Further, the Ratio EC50 was greater than 100 in assay [6] and 100 in assay [7].

Consider `O=c1ccn([C@@H]2O[C@H](COP(=O)(O)OP(=O)(O)C(F)(F)P(=O)(O)O)[C@@H](O)[C@H]2O)c(=O)[nH]1`, for which the EC50 in assay [1] is greater than 100 µM; in [2], 2.63 µM; in assay [3], 4.9 µM. In [7], the Ratio EC50 worked out at 2.

As for `CNc1nc(=O)ccn1[C@@H]1O[C@H](COP(=O)(O)OP(=O)(O)O)[C@@H](O)[C@H]1O`, the EC50 in assay [1] was no less than 100 µM; in [2] it was greater than 100 µM; in [3] it was 7.6 µM.

Take `O=c1[nH]c(=S)ccn1[C@@H]1O[C@H](COP(=O)(O)OP(=O)(O)OP(=O)(O)O)[C@@H](O)[C@H]1O`: the EC50 came out at 0.023 µM in assay [1], 0.023 µM in [4] and 0.026 µM in [3].

Turning to `O=c1ccn([C@@H]2O[C@H](COP(=O)(O)O)[C@@H](O)[C@H]2O)c(SCc2ccccc2)n1`, the EC50 in assay [1] was greater than 100 µM; in assay [2] it was greater than 100 µM; in assay [3], no less than 100 µM.

Take `O=c1ccn([C@@H]2O[C@H](COP(=O)(O)OP(=O)(O)O)[C@@H](O)[C@H]2O)c(=O)[nH]1` [URIDINE_DIPHOSPHATE]: the EC50 was determined as 14 µM in [1], 0.048 µM in assay [2] and 16.5 µM in [3].

On to `O=C(Cn1c(=O)ccn([C@@H]2O[C@H](COP(=O)(O)OP(=O)(O)C(Cl)(Cl)P(=O)(O)O)[C@@H](O)[C@H]2O)c1=O)c1ccccc1`, for which the EC50 amounted to 7.3 µM in assay [1], 0.142 µM in [2] and 0.826 µM in assay [3]. Besides, the figures for the Ratio EC50 in assay [10] and in assay [11] were 6 and 50, respectively.

As for `O=c1[nH]c(=S)ccn1[C@@H]1O[C@H](COP(=O)(O)OP(=O)(O)C(Cl)(Cl)P(=O)(O)O)[C@@H](O)[C@H]1O`, the results for the EC50 in assay [1], in assay [2] and in assay [3] were 7.87 µM, 8.1 µM and 1.81 µM, respectively.

With `O=c1ccn([C@@H]2O[C@H](COP(=O)(O)OP(=O)(O)C(Cl)(Cl)P(=O)(O)O)[C@@H](O)[C@H]2O)c(=S)[nH]1`, the 50% effective concentration (EC50) in assay [1] is 3.85 µM; in assay [2], 7.7 µM; in assay [3] it was 0.794 µM.

For `O=c1[nH]c(=S)ccn1[C@@H]1O[C@H](COP(=O)(O)OP(=O)(O)C(F)(F)P(=O)(O)O)[C@@H](O)[C@H]1O`, the EC50 amounted to 9.3 µM in [1], 7 µM in assay [2] and 0.134 µM in [3]. For the same compound, the Ratio EC50 in assay [6] and in assay [7] was greater than 60 throughout.

For the compound `CSc1nc(=O)ccn1[C@@H]1O[C@H](COP(=O)(O)OP(=O)(O)O)[C@@H](O)[C@H]1O`, the values for the EC50 in [1], in [2] and in assay [3] were 1.52 µM, 4.7 µM and 0.523 µM, respectively. Further, the Ratio EC50 in assay [12] was found to be 33.

On to `CNc1nc(=O)ccn1[C@@H]1O[C@H](COP(=O)(O)O)[C@@H](O)[C@H]1O`, for which the EC50 in assay [1], in assay [2] and in [3] was greater than 100 µM each time.

For `Nc1ccn([C@H]2C[C@H](O)[C@@H](COP(=O)(O)OP(=O)(O)OP(=O)(O)OP(=O)(O)OC[C@H]3O[C@@H](n4ccc(=O)[nH]c4=O)[C@H](O)[C@@H]3O)O2)c(=O)n1` [DENUFOSOL TETRASODIUM], the values for the EC50 in [13], in [4] and in assay [5] were 0.2 µM, 0.8 µM and greater than 1 µM, respectively.

Turning to `O=c1ccn([C@@H]2O[C@H](COP(=O)(O)OP(=O)(O)OP(=O)(O)O)[C@@H](O)[C@H]2O)c(=O)[nH]1` [URIDINE TRIPHOSPHATE], the figures for the EC50 in [1] and in [3] were 0.0884 µM and 0.0179 µM, respectively.

As to `O=c1ccn([C@@H]2O[C@H](COP(=O)(O)OP(=O)(O)C(Cl)(Cl)P(=O)(O)O)[C@@H](O)[C@H]2O)c(=O)[nH]1`, the EC50 is no less than 100 µM in [1], 6.2 µM in [2] and 0.612 µM in assay [3].
